Data reported in the NIST ThermoML archive (doi:10.1016/j.jct.2007.04.005).
± gives the expanded uncertainty stated by the source.

Assay: xn = mol fraction of the nth substance listed
Details: Liquid, x1 = 1

C1CCCCC1 [cyclohexane] + CCCCCCCCC
mass density [kg/m3]
Details	298.15 K	308.15 K	318.15 K	328.15 K
100 kPa	773.8 ± 0.5	764.4 ± 0.5	754.8 ± 0.6	745.4 ± 0.5
101 kPa	773.8 ± 0.49	764.38 ± 0.5	754.99 ± 0.52	745.55 ± 0.53
2130 kPa	775.5 ± 0.6	766.2 ± 0.6	756.7 ± 0.6	746.6 ± 0.6
4150 kPa	777.2 ± 0.6	767.9 ± 0.7	758.7 ± 0.7	749.6 ± 0.7
6180 kPa	778.8 ± 0.7	769.7 ± 0.7	760.6 ± 0.8	751.6 ± 0.8
8210 kPa	780.4 ± 0.8	771.4 ± 0.8	762.4 ± 0.8	753.6 ± 0.9
10230 kPa	782 ± 0.8	773.1 ± 0.9	764.2 ± 0.9	755.5 ± 0.9
11250 kPa	782.8 ± 0.9	773.9 ± 0.9	765.1 ± 0.9	756.4 ± 1
12260 kPa	783.5 ± 0.9	774.7 ± 0.9	766 ± 1	757.4 ± 1
14290 kPa	785 ± 1	776.4 ± 1	767.7 ± 1	759.2 ± 1.1
16310 kPa	786.5 ± 1	777.9 ± 1.1	769.4 ± 1.1	761 ± 1.1
18340 kPa	788 ± 1.1	779.5 ± 1.1	771.1 ± 1.2	762.8 ± 1.2
20370 kPa	789.4 ± 1.1	781 ± 1.2	772.7 ± 1.2	764.5 ± 1.3
22390 kPa	790.9 ± 1.2	782.5 ± 1.2	774.3 ± 1.3	766.2 ± 1.3
24420 kPa	792.2 ± 1.3	784 ± 1.3	775.8 ± 1.3	767.9 ± 1.4
26450 kPa	793.6 ± 1.3	785.5 ± 1.4	777.3 ± 1.4	769.6 ± 1.4
28470 kPa	794.9 ± 1.4	786.9 ± 1.4	778.8 ± 1.5	771.2 ± 1.5
29490 kPa	795.6 ± 1.4	787.6 ± 1.4	779.6 ± 1.5	772 ± 1.5
30500 kPa	796.1 ± 1.4	788.3 ± 1.5	780.3 ± 1.5	772.7 ± 1.6
32530 kPa	797.5 ± 1.5	789.7 ± 1.5	781.7 ± 1.6	774.3 ± 1.6
34550 kPa	798.7 ± 1.5	791 ± 1.6	783.2 ± 1.6	775.8 ± 1.7
36580 kPa	800 ± 1.6	792.4 ± 1.6	784.6 ± 1.7	777.3 ± 1.7
38600 kPa	801.2 ± 1.6	793.7 ± 1.7	786 ± 1.8	778.8 ± 1.8
39620 kPa	801.7 ± 1.7	794.3 ± 1.7	786.7 ± 1.8	779.4 ± 1.8
